The values that follow are results of earlier work, collected in patent US20070071679A1, “Methylamine risks and treatment of hyperactivity, depression, and alcoholism with epinephrine-N-quinolines” (priority 2005, published 2007).

Like-named read-outs stand apart in the source and are kept apart here.

Series [1] relates to sleep-waking cycles of cats. Particulars: for restoration of relative proportions of stages of sleep-waking cycles towards baseline: cats treated with monoamine reuptake inhibitor; for paradoxical (REM) sleep / active sleep: dose not given.
The subject of series [2] is active sleep in kittens. Particulars: 6-OHDA pretreated, two weeks and one month of postnatal age.
For series [3], the system named is active sleep in a rat model. Conditions: during ontogenetic development.
Series [4] has as its system active sleep in kittens.
The subject of series [5] is paradoxical (REM) sleep in rats. Particulars: for percentage of paradoxical (REM) sleep: rats aged 34 months, between 4 and 12 hours after i.p. administration.
The subject of series [6] is regional cerebral blood flow. Conditions: human beings.
The test system of series [7] is cerebral blood flow. Particulars: cats.
The test system of series [8] is REM sleep of cats.
In series [9] the test system is limbic forebrain and cerebellum of rats.
Series [10] deals with human patients. Particulars: antihypertensive treatment.
In series [11] the test system is prepubertal boys and patients with narcolepsy or symptomatic hypersomnia.
Where [12] appears, read: cats, 0.5 mg/kg of body weight intraperitoneally.

For the molecule `CNCCCC1(c2ccccc2)CC(C)(C)c2ccccc21` (centres unmarked) [Prindamine], the REM sleep latency entry in [1] (cats, i.p. administration) is on record as “lengthening”. Moreover, the “proportion of time cats are in REM sleep” value in series [1] (during 16 hours after i.p. administration) is “approximately 7%”.

Take `Clc1cccc(Cl)c1N=C1NCCN1` [clonidine]: the “paradoxical sleep (REM sleep)” value in series [1] (mature cats, 0.01 mg/kg i.p.) is recorded as “suppresses paradoxical sleep”. Also, the active sleep result in [2] (0.01 mg/kg i.p.) is “suppresses active sleep”.

Turning to `CC(C)NCC(O)c1ccc(O)c(O)c1` (centres unmarked) [isoproterenol], in series [3], the active sleep result is “increase active sleep”.

With `Cc1ccc(N(CC2=NCCN2)c2cccc(O)c2)cc1` [phentolamine], in [4], the active sleep entry is listed as “increase active sleep”. In addition, in series [1], the “restoration of relative proportions of stages of sleep-waking cycles towards baseline” value is “restores significantly”. In [1] (mature cats), the “paradoxical (REM) sleep / active sleep” value is “increase active sleep”. In [5] (rats), the “frequency of REM sleep episodes in sleep-waking cycles” value was “increases the frequency of REM sleep episodes”. Moreover, the “percentage of paradoxical (REM) sleep” value in series [5] is recorded as “increase”. Moreover, in series [6], the “regional cerebral blood flow” value is “does not affect”. Besides, the cerebral blood flow entry in series [7] is recorded as “doubled”. Moreover, the “duration of the episodes cats were in REM sleep” value in series [8] (REM sleep deprivation plus 20 mg/kg i.p. at the beginning of recovery, n.s.) was 6.5 ± 1.9 min. In addition, in series [8] (given at the beginning of recovery after REM sleep deprivation), the “number of REM episodes” value is “did not affect”.

Consider `CC(C)NCC(O)COc1cccc2[nH]ccc12` (centres unmarked) [pindolol], for which, in [1] (cats, 0.1 mg/kg of body weight intraperitoneally), the “amount of REM sleep” value is listed as “not”. Moreover, in series [1] (setting [12]), the “amount of REM sleep” value is reported as “increases the amount of REM sleep” and the “amount of drowsy wakefulness” value is on record as “increases the amount of drowsy wakefulness”.

As to `COc1cc2nc(N3CCN(C(=O)c4ccco4)CC3)nc(N)c2cc1OC` [prazosin], in series [1], the “restoration of relative proportions of stages of sleep-waking cycles towards baseline” value is “not”. In series [1] (mature cats, 0.5 mg/kg i.p.), the paradoxical sleep result was “increases paradoxical sleep”. Moreover, in [1] (mature cats), the “paradoxical (REM) sleep / active sleep” value was “increases paradoxical (REM) sleep”. Further, the “percentage of paradoxical (REM) sleep” value in series [5] is listed as “increase”. The active sleep result in [2] (0.5 mg/kg i.p.) is on record as “does not affect active sleep”.

Consider `CC(C)NC[C@H](O)COc1ccc(O)cc1` [prenalterol], for which the “paradoxical (REM) sleep / active sleep” value in series [1] (mature cats) is on record as “increases the amount of paradoxical (REM) sleep”.

For `CC(C)NCC(O)COc1cccc2ccccc12` (centres unmarked) [propranolol], in series [1], the “restoration of relative proportions of stages of sleep-waking cycles towards baseline” value is listed as “not”. The “concentrations of serotonin and 5-HIAA” value in series [9] (after exposure during early development) is “lack of effect”. In series [9] (at the age of five months after early postnatal exposure), the “content of norepinephrine in the limbic forebrain and cerebellum” value is listed as “increased content of norepinephrine”.

Consider `COC(=O)[C@H]1[C@H]2C[C@@H]3c4[nH]c5cc(OC)ccc5c4CCN3C[C@H]2C[C@@H](OC(=O)c2cc(OC)c(OC)c(OC)c2)[C@@H]1OC` [reserpine], for which the “share of treated patients with clinical depression” value in series [10] was “one fourth”.

In the case of `COC(=O)[C@@H]1[C@H]2C[C@H]3c4[nH]c5ccccc5c4CCN3C[C@@H]2CC[C@@H]1O` [yohimbine], the “restoration of relative proportions of stages of sleep-waking cycles towards baseline” value in series [1] is “not”.

As for arginine-vasotocin, the “rapid eye movement sleep” value in series [11] was “induce rapid eye movement sleep”.
